The target of assay [1] is T1, Wee1 kinase domain (Homo sapiens, UniProt P30291).
T1 construct: Wee1 kinase domain was purchased from Carna (catalog #05-177); purchased Carna 05-177
Kind of assay: Wee1 Kinase Biochemical Assay (ADP-Glo). The note with it: 15 uM ATP. In a few lines: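 Poly(Lys,Tyr 4:1) phosphorylation by the kinase domain is followed as ADP output (ADP-Glo) after 4 h at 25 °C, with ATP at 15 uM. Values are percent inhibition between vehicle and full-inhibition controls.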

Assay [2] relates to phosphorylation of Cdc2 Y15 (Wee1 substrate) in A427 cells. Put plainly: Phosphorylated Cdc2 MSD Electrochemiluminescence Assay. The format is cell-based. The protocol:
Phosphorylated Cdc2 MSD Electrochemiluminescence Assay
The effect of Wee1 inhibitors on cellular phosphorylation of the Wee1 substrate Cdc2 was determined using the following protocol:
A total of 40,000 A427 cells in 100 uL culture medium (1640 medium+10% Fetal bovine serum+1% Penicillin-Streptomycin) were plated in 96-well cell culture plates. 3-fold serial dilutions of test compounds were prepared in completed PBS at 25× final concentration. After 20 hours, the plates were removed and 4 μL of each were added to the cells and incubated with shaking for 30 minutes at 37° C., 5% CO2. Each concentration was tested in duplicate. After a total 6 hours incubation, plates were removed and centrifuged for 5 minutes and 100 uL of supernatant from each well was removed. Cells were washed with 200 μL PBS and lysed with 50 μL MSD lysis buffer (Meso Scale Diagnostics) supplied with 1× complete ULTRA cocktail inhibitor (Roche).
To detect phosphorylation of Cdc2 Y15, 30 μL of capture antibody solution (CST catalog #9116S 1:200) was added into each well of the MSD plate (MSD catalog #L15XB-6), sealed and incubated at 4° C. with shaking (450 rpm) overnight. The antibody solution was removed, wells blocked with BSA solution and plates washed three times with PBST, followed by addition of 30 μl of cell lysate per well. After 2 hours of incubation, plates were washed three times with PBST. 30 μL of 1× detection antibody solution (CST catalog #4539S 1:200) was then added to each well and incubated for 1 hour. Plates were washed three times with PBST and 30 μL of 1× secondary antibody solution (MSD, catalog #:R32AB-1, 1:5000) was added to each well and incubated for 1 hour. Plates were washed three times with PBST and 150 μL of 1× Read Buffer T (MSD, catalog #R92TC-1) was added to each well of the MSD plate. The electrochemiluminescence signal was measured on a MESO SECTOR S600 plate reader. The percentage of remaining phosphorylated Cdc2 signal was calculated following the equation below.
[formula] • HC (high control): Cells treated with DMSO • Cpds: Cells treated with test compounds • LC (low control): Cells treated with positive control Wee1 inhibitor

Where [3] appears, read: class symbols, 1 nM Wee1 enzyme, 4 hours at 25° C.
[4] abbreviates: Homo sapiens, A-427, class symbols, read-out: A427 pCDC2 MSD IC50.

As a reminder, the IC50 is the point on the concentration scale where inhibition reaches its midpoint.

Like-named read-outs stand apart in the source and are kept apart here.

T1 sequence (P30291 299-569 limits assumed): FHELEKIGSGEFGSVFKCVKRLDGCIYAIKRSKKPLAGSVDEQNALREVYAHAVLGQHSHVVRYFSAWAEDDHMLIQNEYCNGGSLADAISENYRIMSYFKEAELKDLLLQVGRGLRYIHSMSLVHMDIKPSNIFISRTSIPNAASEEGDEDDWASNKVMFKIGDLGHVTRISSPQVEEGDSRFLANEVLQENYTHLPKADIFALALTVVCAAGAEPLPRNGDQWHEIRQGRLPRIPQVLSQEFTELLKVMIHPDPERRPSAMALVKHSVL

`CNCc1cccc(N2c3nc(Nc4ccc(-c5cnn(C)c5)nc4)ncc3[C@@]3(C)COC(C)(C)C[C@@H]23)n1` (single isomer, unassigned) [Example 460]: the IC50 was < 10 nM in assay [1] (setting [3]) and 100 to 1000 nM in assay [2] (setting [4]).
Taken in the same sequence, the figures for `CN1CCN(c2ccc(Nc3ncc4c(n3)N(c3cccc(N5CCOC5=O)n3)[C@@H]3CC(C)(C)OC[C@]43C)cc2)CC1` (single isomer, unassigned) [Example 577] were < 10 nM and < 100 nM.
Turning to `CNC(=O)c1ccc(Nc2ncc3c(n2)N(c2cccc(N=S(C)(C)=O)n2)[C@@H]2CC(C)(C)OC[C@]32C)cc1` (single isomer, unassigned) [Example 117], the IC50 in assay [1] (Wee1 kinase domain, ADP-Glo) was < 10 nM; in assay [2] (Homo sapiens, A-427, pCDC2 MSD) it was < 100 nM.
For the compound `CNCc1cccc(N2c3nc(Nc4ccc([C@@H]5CC(=O)N(C)C5)cc4)ncc3[C@@]3(C)COC(C)(C)C[C@@H]23)n1` (single isomer, unassigned) [Example 69], the IC50 in assay [1] (Wee1 kinase domain, ADP-Glo) is < 10 nM; in assay [2] (Homo sapiens, A-427, pCDC2 MSD), < 100 nM.
`Cn1cc([C@H]2C[C@@H]2C(=O)Nc2ncc3c(n2)N(c2cccc(N=S(C)(C)=O)n2)[C@@H]2CC(C)(C)OC[C@]32C)cn1` (single isomer, unassigned) [Example 406]: the figures for the IC50 in assay [1] (setting [3]) and in assay [2] (setting [4]) were < 10 nM and 100 to 1000 nM, respectively.
For `CC1(C)C[C@H]2N(c3cccc(N=S(C)(C)=O)n3)c3nc(NC(=O)[C@@H]4C[C@H]4c4ccccc4)ncc3[C@@]2(C)CO1` (single isomer, unassigned) [Example 396], the half-maximal inhibitory concentration (IC50) was < 10 nM in assay [1] (Wee1 kinase domain, ADP-Glo) and 100 to 1000 nM in assay [2] (Homo sapiens, A-427, pCDC2 MSD).
Taken in the same sequence, the figures for `Cc1cc(Nc2ncc3c(n2)N(c2cccc(N=S(C)(C)=O)n2)[C@@H]2CC(C)(C)OC[C@]32C)ccc1[C@@H]1CCN(C)C1` (single isomer, unassigned) [Example 145] were < 10 nM and < 100 nM.
Taken in the same sequence, the figures for `C[C@H]1COC(=O)N1c1cccc(N2c3nc(Nc4ccc(O[C@H]5CCN(C)C5)nc4)ncc3[C@@]3(C)COC(C)(C)C[C@@H]23)n1` (single isomer, unassigned) [Example 281] were < 10 nM and 100 to 1000 nM.
Take `CC(C)n1ccc(N2c3nc(Nc4ccc(N5CCN(C)CC5)cc4)ncc3[C@@]3(C)COC(C)(C)C[C@@H]23)n1` (single isomer, unassigned) [Example 721]: the results for the IC50 in assay [1] (setting [3]) and in assay [2] (setting [4]) were < 10 nM and 100 to 1000 nM, respectively.
Taken in the same sequence, the figures for `CN1CCN(c2ccc(Nc3ncc4c(n3)N(c3ccn(C(F)F)n3)[C@@H]3CC(C)(C)OC[C@]43C)cc2)CC1` (single isomer, unassigned) [Example 720] were < 10 nM and 100 to 1000 nM.
As for `CC1(C)C[C@H]2N(c3cccc(N4CCOC4=O)n3)c3nc(Nc4ccc(O[C@@H]5CCNC5)cc4)ncc3[C@@]2(C)CO1` [Example 622, 3-(6-((4bR,8aR)-4b,7,7-trimethyl-2-((4-(((R)-pyrrolidin-3-yl)oxy)phenyl)amino)-4b,7,8,8a-tetrahydropyrano[3′,4′:4,5]pyrrolo[2,3-d]pyrimidin-9(5H)-yl)pyridin-2-yl)oxazolidin-2-one], the IC50 in assay [1] (setting [3]) was < 10 nM; in assay [2] (setting [4]), 100 to 1000 nM.
Turning to `CC1(C)C[C@H]2N(c3cccc(P(C)(C)=O)n3)c3nc(Nc4ccn(C5CCOCC5)c(=O)c4)ncc3[C@@]2(C)CO1` (single isomer, unassigned) [Example 780], the values for the 50% inhibitory concentration (IC50) in assay [1] (setting [3]) and in assay [2] (setting [4]) were < 10 nM and < 100 nM, respectively.
For `Cc1cnc(Nc2ncc3c(n2)N(c2cccc(N=S(C)(C)=O)n2)[C@@H]2CC(C)(C)OC[C@]32C)cn1` (single isomer, unassigned) [Example 371], the IC50 in assay [1] (Wee1 kinase domain, ADP-Glo) is < 10 nM; in assay [2] (Homo sapiens, A-427, pCDC2 MSD) it was 100 to 1000 nM.
`CNCc1cccc(N2c3nc(Nc4ccc(N5CCCCC5)cc4)ncc3[C@@]3(C)COC(C)(C)C[C@@H]23)n1` (single isomer, unassigned) [Example 2]: the IC50 was < 10 nM in assay [1] (Wee1 kinase domain, ADP-Glo) and 100 to 1000 nM in assay [2] (Homo sapiens, A-427, pCDC2 MSD).
`Cc1cc(Nc2ncc3c(n2)N(c2cccc(N4C(=O)OC[C@@H]4C)n2)[C@@H]2CC(C)(C)OC[C@]32C)ccc1O[C@@H]1CCNC1` (single isomer, unassigned) [Example 337]: the IC50 was < 10 nM in assay [1] (Wee1 kinase domain, ADP-Glo) and 100 to 1000 nM in assay [2] (Homo sapiens, A-427, pCDC2 MSD).
Taken in the same sequence, the figures for `CC1(C)C[C@H]2N(c3cccc(N=S(C)(C)=O)n3)c3nc(Nc4ccc(O[C@H]5CCNC5)cc4)ncc3[C@@]2(C)CO1` (single isomer, unassigned) [Example 153] were < 10 nM and < 100 nM.
In the case of `CN1CC[C@H](c2ccc(Nc3ncc4c(n3)N(c3cccc(N5CCOC5=O)n3)[C@@H]3CC(C)(C)OC[C@]43C)cc2)C1` (single isomer, unassigned) [Example 602], the IC50 was < 10 nM in assay [1] (setting [3]) and 100 to 1000 nM in assay [2] (setting [4]).
As for `CC1(C)C[C@H]2N(c3cccc(N=S(C)(C)=O)n3)c3nc(Nc4ccn(C5CCOCC5)c(=O)c4)ncc3[C@@]2(C)CO1` (single isomer, unassigned) [Example 233], the IC50 in assay [1] (Wee1 kinase domain, ADP-Glo) is < 10 nM; in assay [2] (Homo sapiens, A-427, pCDC2 MSD), 100 to 1000 nM.
`C[C@H]1COC(=O)N1c1cccc(N2c3nc(Nc4ccc([C@@H]5CCN(C)C5)cc4)ncc3[C@@]3(C)COC(C)(C)C[C@@H]23)n1` (single isomer, unassigned) [Example 305]: the half-inhibitory concentration (IC50) in assay [1] (Wee1 kinase domain, ADP-Glo) is < 10 nM; in assay [2] (Homo sapiens, A-427, pCDC2 MSD), 100 to 1000 nM.
Turning to `C[C@H]1COC(=O)N1c1cccc(N2c3nc(Nc4ccc(O[C@@H]5CCN(C)C5)nc4)ncc3[C@@]3(C)COC(C)(C)C[C@@H]23)n1` (single isomer, unassigned) [Example 283], the IC50 in assay [1] (Wee1 kinase domain, ADP-Glo) is < 10 nM; in assay [2] (Homo sapiens, A-427, pCDC2 MSD), 100 to 1000 nM.
As to `CN[C@@H](Cc1ccc(Nc2ncc3c(n2)N(c2cccc(N4C(=O)OC[C@@H]4C)n2)[C@@H]2CC(C)(C)OC[C@]32C)cc1)C(=O)O` (single isomer, unassigned) [Example 321], the IC50 was < 10 nM in assay [1] (Wee1 kinase domain, ADP-Glo) and 100 to 1000 nM in assay [2] (Homo sapiens, A-427, pCDC2 MSD).
Regarding `CC1(C)C[C@H]2N(c3cccc(N=S(C)(C)=O)n3)c3nc(NC(=O)[C@H]4C[C@@H]4c4ccccc4)ncc3[C@@]2(C)CO1` (single isomer, unassigned) [Example 397], the IC50 in assay [1] (Wee1 kinase domain, ADP-Glo) was < 10 nM; in assay [2] (pCDC2 MSD), 100 to 1000 nM.
Turning to `CC1(C)C[C@H]2N(c3cccc(N=S(C)(C)=O)n3)c3nc(Nc4ccc([C@]5(C)CCNC5)cc4)ncc3[C@@]2(C)CO1` (single isomer, unassigned) [Example 171], the IC50 in assay [1] (Wee1 kinase domain, ADP-Glo) was < 10 nM; in assay [2] (Homo sapiens, A-427, pCDC2 MSD) it was 100 to 1000 nM.
As for `Cc1cc(Nc2ncc3c(n2)N(c2cccc(N=S(C)(C)=O)n2)[C@@H]2CC(C)(C)OC[C@]32C)ccc1[C@@H]1CCNC1` (single isomer, unassigned) [Example 143], the IC50 in assay [1] (Wee1 kinase domain, ADP-Glo) was < 10 nM; in assay [2] (Homo sapiens, A-427, pCDC2 MSD), 100 to 1000 nM.
With `Cc1cc(Nc2ncc3c(n2)N(c2cccc(N4C(=O)OC[C@@H]4C)n2)[C@@H]2CC(C)(C)OC[C@]32C)ccc1O[C@@H]1CCN(C)C1` (single isomer, unassigned) [Example 347], the half-maximal inhibitory concentration (IC50) is < 10 nM in assay [1] (Wee1 kinase domain, ADP-Glo) and 100 to 1000 nM in assay [2] (Homo sapiens, A-427, pCDC2 MSD).
In the case of `C[C@H]1COC(=O)N1c1cccc(N2c3nc(Nc4ccc(OC5CCN(C)CC5)nc4)ncc3[C@@]3(C)COC(C)(C)C[C@@H]23)n1` (single isomer, unassigned) [Example 335], the IC50 in assay [1] (Wee1 kinase domain, ADP-Glo) was < 10 nM; in assay [2] (Homo sapiens, A-427, pCDC2 MSD), < 100 nM.
In the case of `CC1(C)C[C@H]2N(c3cccc(N=S(C)(C)=O)n3)c3nc(Nc4cnn(C(F)F)c4)ncc3[C@@]2(C)CO1` (single isomer, unassigned) [Example 487], the concentration for half-maximal inhibition (IC50) was < 10 nM in assay [1] (setting [3]) and 100 to 1000 nM in assay [2] (setting [4]).

Values taken from patent US20260166039A1 (SCHRÖDINGER, INC., priority 2022, published 2026).
